# How the values were obtained:
# [1] = tested on: MCF-7/WS8 breast cancer cells; experiment: MRI T1 and signal intensity of MCF-7 cells transfected with SuperFect reagent, in agarose phantoms; type: cell-based, human; settings: for T1 value, Equation method / T1 value, Null point method / Signal intensity: SuperFect; for T1 value, Equation method / T1 value, Null point method: 48 hours after treatment, 1.5 T; for Signal intensity: T1-weighted
# Description: For transfection experiments MCF-7/W8/WS8 breast cancer cells (American Type Culture Collection, ATCC, Manassas, Va.) and PC3-M prostate cancer cells (ATCC) were grown in a 5% CO2 humidified atmosphere in RPMI1640 cell culture medium (this and all other standard cell culture supplements were from Invitrogen/Gibco, Carlsbad, Calif.) supplemented with 10% fetal bovine serum and antibiotic-antimycotic. MCF-7/WS8 medium also contained insulin at a concentration of 10 μg/mL (Sigma, St. Louis, Mo.), 200 mM 1-glutamine, and 10 mM nonessential amino acids; PC3-M medium also contained 25 μg/mL G418 and 2.4 mg/mL HEPES. Nearly confluent cells were serum-starved for 16 to 20 hours before transfection or treatment.
# For SuperFect transfection, 60 μL of SuperFect reagent (Qiagen, Valencia, Calif.) and 300 μL of any one of the following: (1) Gd contrast agent, (2) TiO2 nanoparticles, or (3) TiO2-DNA-Gd nanoconjugates were used; these mixtures were applied onto 16 million cells each. Final concentrations of these agents in the medium were (1) 144 μM Gd; (2) 0.12 μM TiO2 nanoparticles, or (3) TiO2-DNA-Gd nanoconjugates wherein TiO2 nanoparticles were 0.12 μM and Gd was 75.6 μM in concentration. Media were exchanged for fresh complete cell media 24 hours later and, after an additional 24-hour incubation, cells were harvested for imaging.
# In all cases, cells harvested for MRI were embedded in 300 μL agarose phantoms. Once the MRI was completed, these phantoms were used for ICP-MS and/or preparation of paraffin-embedded samples for sectioning and imaging by x-ray fluorescence microscopy.
# To prepare samples for MRI, 150 μL of Hank's balanced buffered salt solution (HBBS; Invitrogen/Gibco) containing cells were mixed with 2% agarose melted in 150 μL of HBBS. Cells in agarose solidified as a plug and were transferred into tubes, placed in a water bath, and imaged using a 1.5 T Siemens Sonata system (Erlangen, Germany) with a four-channel head coil for signal reception and body coil for excitation. T 1 of each sample was measured using an inversion recovery sequence with repetition time (TR)=4000 ms and inversion times of 50, 200, 500, 800, 1000, 1200, 1500, and 2000 ms. Other scan parameters were: field of view=125×200 mm^2; acquisition matrix=115×192; readout bandwidth=965 Hz/pixel; slice thickness=5 mm; all images were acquired in the coronal orientation.
# For data analysis the raw data of signal intensity versus TI were fit to the equation: Signal intensity=abs(A*(1−2*exp(−R1*TI))+C, where R1=1/T1. Variables A and C are free parameters of the model. The confidence interval was determined statistically; R2 indicates goodness of fit. The TI corresponding to the lowest signal intensity (TInull) is an indication of the T1 value; this relationship can be estimated by the equation: T1=TInull/ln(2). T1 values determined using the results of the equation fit and the null point relationship are listed in Table 2. Signal intensity, a quantitative metric of relative brightness, was measured with a circular region-of-interest within each sample.
# MCF-7 cells [2] = experiment: Intracellular Gd by ICP-MS of agarose phantoms with embedded cells; type: cell-based, human; settings: 48 hours after transfection
# Description: Sections of agarose phantoms with embedded cells were analyzed by ICP-MS.
# [3] = tested on: plasmid DNA (pKaede-MN1 plasmid with R18 insert); experiment: Light-induced plasmid DNA cleavage, agarose gel electrophoresis; type: biochemical
# Description: Reactions containing plasmid DNA and either buffer, alizarin red s, TiO2 nanoparticles, or alizarin red s-coated TiO2 nanoparticles were incubated at 37° C. for 10 minutes and either kept in the dark or illuminated with a 75 watt halogen bulb for 5-10 minutes (FIG. 36). Samples were then run via electrophoresis at 50 volts for 4 hours on a 1.25% agarose gel and scanned on a Typhoon Trio multi-mode imager to visualize the different resulting configurations of plasmid DNA (FIG. 36). […] To confirm the identities of plasmid configurations resulting from excitation of alizarin red s-coated TiO2 nanoparticles, supercoiled, nicked, and linearized plasmid DNA bands were excised and purified from the agarose gel.
# The role of the latter was investigated by expanding upon previous experiments and using TiO2 nanoparticles that were coated with glycidyl isopropyl ether (GIE), which reduces interaction between the nanoparticle surface and its surrounding environment (Paunesku et al Nat. Mater. 2003, 2, 343-346; Rajh et al Nano Lett. 2004, 4, 1017-1023). Plasmid samples containing either GIE, GIE and alizarin red s, or GIE-alizarin red s-coated TiO2 nanoparticles were illuminated for 5 minutes with 150W halogen bulb (FIG. 39).
# The effect of conjugating different peptide nucleic acid sequences to GIE-alizarin-coated TiO2 nanoparticles on DNA cleavage was investigated (FIG. 40A).
# PC-3M cells = settings: human, 24 h, 20 mM
# Description: All cell culture reagents were purchased from Mediatech Inc. unless otherwise specified. […] Both cell lines were maintained at 37° C. with 5% CO2 in RPMI 1640 media supplemented with fetal bovine serum (10%), L-glutamine (2 mM), HEPES (10 mM), penicillin (100 I.U./ml), streptomycin (100 μg/ml). […] PC-3M cells were further supplemented with G418 sulfate (0.15 mg/ml). For treatment, cells were washed with phosphate buffered saline solution (PBS) and placed in serum free RPMI 1640 for 1-2 hours. Then cells were treated with TiO2 nanoparticles (333 nM) coated with or without ARS (60 μM), and/or ODN (160 μM) for one hour. […]
# After treatment and washing, cells were trypsinized, collected in FBS supplemented medium, and brought to a single cell suspension. […] Samples were then taken to the Northwestern University Flow Cytometry Core Facility of the Robert H. Lurie Cancer Center to be analyzed or sorted on the DakoCytomation MoFlo Flow Cytometer (Dako). […]
# Labeling the nanoparticles, however, allowed one to screen the treated cells simultaneously for nanoparticle uptake (by ARS fluorescence) and for viability (by use of fluorescent cell-impermeable dye). […] Flow cytometry was then used to quantify both the extent of nanoparticle uptake within the cell population, and the cells' ability to exclude cell-impermeable DAPI as an indicator of cell viability.
# in vitro = settings: rat
# MCF-7 cells [4] = experiment: Intracellular localization by confocal fluorescent microscopy; settings: 1 hour treatment
compound,measurement,setting,value
"PGA-1,6-hexanediamine-(Gd-DOTA)-dopamine conjugate","T1 value, Equation method",[1]; 5 × 10^5 cells,1799
same,"T1 value, Null point method",[1]; 5 × 10^5 cells,1436
same,Signal intensity,"[1]; 5 × 10^5 cells, inversion time 1000 ms",33
same,"T1 value, Equation method",[1]; 5 × 10^6 cells,1625
same,"T1 value, Null point method",[1]; 5 × 10^6 cells,1235
same,Signal intensity,"[1]; 5 × 10^6 cells, inversion time 1000 ms",71
same,T1-weighted signal enhancement of treated cells,"[1]; T1-weighted images, inversion time 1000 ms, 24 or 48 hours after treatment",no T1-weighted enhancement
same,intracellular concentration of Gd (average),"MCF-7 cells [2]; 5×10^6 cells, ICP-MS",0.75 µM
same,Gd retention relative to Gd in cell media,MCF-7 cells [2],0.5%
"O=C1c2ccccc2C(=O)c2c1cc(S(=O)(=O)O)c(O)c2O [ARS, 1,2 dihydroxyanthraquinone-3-sulfonate]",plasmid DNA cleavage upon light exposure,"[3]; 75 watt halogen bulb, 5-10 minutes",increase in the presence of nicked plasmid
"OO [H2O2, hydrogen peroxide]",reduction in viability,PC-3M cells,approximately 54%
"CC(C)OCC1CO1 (centres unmarked) [GIE, glycidyl isopropyl ether]",plasmid DNA cleavage upon light exposure,"[3]; 150W halogen bulb, 5 minutes, three replicate experiments",not cleaved
"COc1cccc2c1C(=O)c1c(O)c3c(c(O)c1C2=O)C[C@@](O)(C(=O)CO)C[C@@H]3O[C@H]1C[C@H](N)[C@H](O)[C@H](C)O1 [free doxorubicin, Doxorubicin]","viability at 4 days, 1.72 μM",in vitro,79.6%
same,subcellular localization,MCF-7 cells [4],predominantly located in the cell nucleus

# From patent US8557290B2, “Multifunction nanoconjugates for imaging applications and targeted treatment” (priority 2008, dated 2013)
